Legend:
Format in all cases: cell-based
HCC 2998 = experiment: Cytotoxicity against human HCC2998 cells assessed as effect on cell growth at 10 uM incubated for 48 hrs by sulforhodamine B assay; details: hcc 2998, 48 h
SNB-19 = experiment: Cytotoxicity against human SNB19 cells assessed as effect on cell growth at 10 uM incubated for 48 hrs by sulforhodamine B assay; details: snb-19, 48 h
ACHN = experiment: Cytotoxicity against human ACHN cells assessed as effect on cell growth at 10 uM incubated for 48 hrs by sulforhodamine B assay
OVCAR-5 = experiment: Cytotoxicity against human OVCAR5 cells assessed as effect on cell growth at 10 uM incubated for 48 hrs by sulforhodamine B assay; details: ovcar-5, 48 h
RXF 393 = experiment: Cytotoxicity against human RXF393 cells assessed as effect on cell growth at 10 uM incubated for 48 hrs by sulforhodamine B assay; details: rxf 393, 48 h
MDA-MB-231 = experiment: Cytotoxicity against human MDA-MB-231 cells assessed as effect on cell growth at 10 uM incubated for 48 hrs by sulforhodamine B assay; details: mda-mb-231, 48 h
UACC-62 = experiment: Cytotoxicity against human UACC62 cells assessed as effect on cell growth at 10 uM incubated for 48 hrs by sulforhodamine B assay; details: uacc-62, 48 h
NCI-H522 = experiment: Cytotoxicity against human NCI-H522 cells assessed as effect on cell growth at 10 uM incubated for 48 hrs by sulforhodamine B assay; details: nci-h522, 48 h
HCT-15 = experiment: Cytotoxicity against human HCT15 cells assessed as effect on cell growth at 10 uM incubated for 48 hrs by sulforhodamine B assay; details: hct-15, 48 h
IGROV-1 = experiment: Cytotoxicity against human IGROV1 cells assessed as effect on cell growth at 10 uM incubated for 48 hrs by sulforhodamine B assay; details: igrov-1, 48 h
UO-31 = experiment: Cytotoxicity against human UO31 cells assessed as effect on cell growth at 10 uM incubated for 48 hrs by sulforhodamine B assay; details: uo-31, 48 h
786-0 = experiment: Cytotoxicity against human 786-0 cells assessed as effect on cell growth at 10 uM incubated for 48 hrs by sulforhodamine B assay; details: 786-0, 48 h
MCF7 = experiment: Cytotoxicity against human MCF7 cells assessed as effect on cell growth at 10 uM incubated for 48 hrs by sulforhodamine B assay; details: mcf7, 48 h
T47D = experiment: Cytotoxicity against human T47D cells assessed as effect on cell growth at 10 uM incubated for 48 hrs by sulforhodamine B assay
SK-MEL-2 = experiment: Cytotoxicity against human SK-MEL-2 cells assessed as effect on cell growth at 10 uM incubated for 48 hrs by sulforhodamine B assay; details: sk-mel-2, 48 h
EKVX = experiment: Cytotoxicity against human EKVX cells assessed as effect on cell growth at 10 uM incubated for 48 hrs by sulforhodamine B assay
DU-145 = experiment: Cytotoxicity against human DU145 cells assessed as effect on cell growth at 10 uM incubated for 48 hrs by sulforhodamine B assay; details: du-145, 48 h
SNB-75 = experiment: Cytotoxicity against human SNB75 cells assessed as effect on cell growth at 10 uM incubated for 48 hrs by sulforhodamine B assay; details: snb-75, 48 h
HL-60(TB) = experiment: Cytotoxicity against human HL-60(TB) cells assessed as effect on cell growth at 10 uM incubated for 48 hrs by sulforhodamine B assay
SK-MEL-5 = experiment: Cytotoxicity against human SK-MEL-5 cells assessed as effect on cell growth at 10 uM incubated for 48 hrs by sulforhodamine B assay; details: sk-mel-5, 48 h

Measured: Activity

O=C(NCc1ccc(Cl)cc1Cl)[C@@H]1CCC(=O)N1c1ccccc1
Non-Toxic: HCC 2998 | SNB-19 | ACHN | OVCAR-5 | RXF 393 | MDA-MB-231 | UACC-62 | NCI-H522 | HCT-15 | IGROV-1 | UO-31 | 786-0 | MCF7 | T47D | SK-MEL-2 | EKVX | DU-145 | SNB-75 | HL-60(TB) | SK-MEL-5

O=C(NCc1ccccc1Cl)[C@@H]1CCC(=O)N1Cc1ccccc1Cl
Non-Toxic: HCC 2998 | SNB-19 | ACHN | OVCAR-5 | RXF 393 | MDA-MB-231 | UACC-62 | NCI-H522 | HCT-15 | IGROV-1 | UO-31 | 786-0 | MCF7 | T47D | SK-MEL-2 | EKVX | DU-145 | SNB-75 | HL-60(TB) | SK-MEL-5

O=C1N[C@H](C(=O)NCc2ccc(Cl)cc2Cl)CO1
Non-Toxic: HCC 2998 | SNB-19 | ACHN | OVCAR-5 | RXF 393 | MDA-MB-231 | UACC-62 | NCI-H522 | HCT-15 | IGROV-1 | UO-31 | 786-0 | MCF7 | T47D | SK-MEL-2 | EKVX | DU-145 | SNB-75 | HL-60(TB) | SK-MEL-5

CN1C(=O)CC[C@H]1C(=O)NCc1cccc(C(F)(F)F)c1Cl [GSK1482160]
Non-Toxic: HCC 2998 | SNB-19 | ACHN | OVCAR-5 | RXF 393 | MDA-MB-231 | UACC-62 | NCI-H522 | HCT-15 | IGROV-1 | UO-31 | 786-0 | MCF7 | T47D | SK-MEL-2 | EKVX | DU-145 | SNB-75 | HL-60(TB) | SK-MEL-5

C[n+]1ccccc1C(=O)NCc1ccc(Cl)cc1Cl.[I-]
Non-Toxic: HCC 2998 | SNB-19 | ACHN | OVCAR-5 | RXF 393 | MDA-MB-231 | UACC-62 | NCI-H522 | HCT-15 | IGROV-1 | UO-31 | 786-0 | MCF7 | T47D | SK-MEL-2 | EKVX | DU-145 | SNB-75 | HL-60(TB) | SK-MEL-5

COc1cc(CNC(=O)[C@@H]2CCC(=O)N2)cc(OC)c1OC
Non-Toxic: HCC 2998 | SNB-19 | ACHN | OVCAR-5 | RXF 393 | MDA-MB-231 | UACC-62 | NCI-H522 | HCT-15 | IGROV-1 | UO-31 | 786-0 | MCF7 | T47D | SK-MEL-2 | EKVX | DU-145 | SNB-75 | HL-60(TB) | SK-MEL-5

O=C(NCc1ccc(Cl)cc1Cl)[C@@H]1CCC(=O)N1c1cncs1
Non-Toxic: HCC 2998 | SNB-19 | ACHN | OVCAR-5 | RXF 393 | MDA-MB-231 | UACC-62 | NCI-H522 | HCT-15 | IGROV-1 | UO-31 | 786-0 | MCF7 | T47D | SK-MEL-2 | EKVX | DU-145 | SNB-75 | HL-60(TB) | SK-MEL-5

O=C(NCC1CCCCC1)[C@@H]1CCC(=O)N1c1ccccc1
Non-Toxic: HCC 2998 | SNB-19 | ACHN | OVCAR-5 | RXF 393 | MDA-MB-231 | UACC-62 | NCI-H522 | HCT-15 | IGROV-1 | UO-31 | 786-0 | MCF7 | T47D | SK-MEL-2 | EKVX | DU-145 | SNB-75 | HL-60(TB) | SK-MEL-5

O=C1N[C@H](C(=O)NCc2ccc(Cl)cc2Cl)C/C1=C\N1CCOCC1
Non-Toxic: HCC 2998 | SNB-19 | ACHN | OVCAR-5 | RXF 393 | MDA-MB-231 | UACC-62 | NCI-H522 | HCT-15 | IGROV-1 | UO-31 | 786-0 | MCF7 | T47D | SK-MEL-2 | EKVX | DU-145 | SNB-75 | HL-60(TB) | SK-MEL-5

O=C(NCc1ccc(Cl)cc1Cl)[C@@H]1CCC(=O)N1Cc1ccccc1
Non-Toxic: HCC 2998 | SNB-19 | ACHN | OVCAR-5 | RXF 393 | MDA-MB-231 | UACC-62 | NCI-H522 | HCT-15 | IGROV-1 | UO-31 | 786-0 | MCF7 | T47D | SK-MEL-2 | EKVX | DU-145 | SNB-75 | HL-60(TB) | SK-MEL-5

O=C(NCc1ccc(Cl)cc1Cl)[C@@H]1CCC(=O)N1c1cscn1
Non-Toxic: HCC 2998 | SNB-19 | ACHN | OVCAR-5 | RXF 393 | MDA-MB-231 | UACC-62 | NCI-H522 | HCT-15 | IGROV-1 | UO-31 | 786-0 | MCF7 | T47D | SK-MEL-2 | EKVX | DU-145 | SNB-75 | HL-60(TB) | SK-MEL-5

CN(C)/C=C1\C[C@H]2C(=O)N(Cc3ccccc3Cl)C(N(C)C)N2C1=O (stereo not given in full)
Non-Toxic: HCC 2998 | SNB-19 | ACHN | OVCAR-5 | RXF 393 | MDA-MB-231 | UACC-62 | NCI-H522 | HCT-15 | IGROV-1 | UO-31 | 786-0 | MCF7 | T47D | SK-MEL-2 | EKVX | DU-145 | SNB-75 | HL-60(TB) | SK-MEL-5

Source: ChEMBL document CHEMBL4627246, “Pyroglutamide-Based P2X7 Receptor Antagonists Targeting Inflammatory Bowel Disease” (J Med Chem, 2020)
